Earlier results as cited in patent US20240226035A1, “Precision Medicine Approach to Treating Parkinson's Disease with a Monoamine Oxidase Inhibitor, an Antioxidant, or Both” (UNIVERSITY OF NORTH TEXAS HEALTH SCIENCE CENTER AT FORT …, priority 2021, published 2024).

Settings: DATATOP trial
[1] = deprenyl 10 mg/day, PD patients

C#CCN(C)[C@H](C)Cc1ccccc1 [deprenyl]
effect on reducing PD symptoms (deprenyl 10 mg/d, after 14 months, trial discontinued and became open-label): positive effects | postponing levodopa-related adverse events or extending life [1]: no benefit | time until disability that warranted initiation of levodopa therapy [1]: delayed time until disability that warranted initiation of levodopa therapy
